Assay results published in publication PMC5564600 (Oncotarget, 2017).
Read-outs that look alike come from different tables or passages of the source.

Legend:
Experiment in all cases: biochemical
Assay type in all cases: binding
panel of 442 kinases [1] = molecular target: T1, panel of 442 kinases (Homo sapiens, UniProt Q9HC98); conditions: kinase NEK6; for remaining activity at 1 µM: read-out: % of control at 1 µM
T1 construct: purchased Ambit Biosciences (scanMAXX KINOMEscan)

panel of 442 kinases [2] = molecular target: T2, panel of 442 kinases (Homo sapiens, UniProt O14757); conditions: CHEK1; for remaining activity at 1 µM: read-out: % of control at 1 µM
T2 construct: purchased Ambit Biosciences (scanMAXX KINOMEscan)
T2 sequence (O14757 1-476): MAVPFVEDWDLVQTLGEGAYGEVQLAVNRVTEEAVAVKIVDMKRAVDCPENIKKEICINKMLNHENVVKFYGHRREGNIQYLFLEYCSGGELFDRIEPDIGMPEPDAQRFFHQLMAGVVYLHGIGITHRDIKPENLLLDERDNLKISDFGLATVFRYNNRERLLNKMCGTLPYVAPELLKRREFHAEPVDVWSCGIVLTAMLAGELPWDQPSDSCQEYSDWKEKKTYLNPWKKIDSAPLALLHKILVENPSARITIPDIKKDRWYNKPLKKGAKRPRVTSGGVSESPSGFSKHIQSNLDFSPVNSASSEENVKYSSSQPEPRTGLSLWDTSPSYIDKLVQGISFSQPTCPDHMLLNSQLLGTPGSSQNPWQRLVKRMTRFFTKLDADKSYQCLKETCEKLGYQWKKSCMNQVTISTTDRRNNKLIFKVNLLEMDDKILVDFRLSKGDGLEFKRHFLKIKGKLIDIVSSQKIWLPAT

panel of 442 kinases [3] = molecular target: T3, panel of 442 kinases (Homo sapiens, UniProt P07947); conditions: kinase YES; for remaining activity at 1 µM: read-out: YES (% of control at 1 µM)
T3 construct: purchased Ambit Biosciences (scanMAXX KINOMEscan)
T3 sequence (P07947 whole entry): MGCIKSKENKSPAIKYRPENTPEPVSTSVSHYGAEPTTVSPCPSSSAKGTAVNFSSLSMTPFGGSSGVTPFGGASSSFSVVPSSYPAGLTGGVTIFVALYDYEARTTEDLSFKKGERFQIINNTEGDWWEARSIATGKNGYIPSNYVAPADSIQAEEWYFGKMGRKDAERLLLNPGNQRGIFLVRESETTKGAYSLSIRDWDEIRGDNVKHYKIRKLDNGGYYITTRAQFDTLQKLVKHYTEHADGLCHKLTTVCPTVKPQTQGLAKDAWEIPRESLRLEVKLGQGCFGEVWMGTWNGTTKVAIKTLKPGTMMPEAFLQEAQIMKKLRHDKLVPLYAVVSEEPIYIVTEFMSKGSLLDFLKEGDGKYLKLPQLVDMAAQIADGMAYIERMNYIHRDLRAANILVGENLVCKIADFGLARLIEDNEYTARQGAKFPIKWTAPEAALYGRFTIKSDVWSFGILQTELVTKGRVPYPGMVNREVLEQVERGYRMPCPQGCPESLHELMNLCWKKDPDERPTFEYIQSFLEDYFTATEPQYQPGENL

panel of 442 kinases [4] = molecular target: T4, panel of 442 kinases (Homo sapiens, UniProt P10721, V559D/V654A); conditions: kinase KIT(V559D,V654A); for remaining activity at 1 µM: read-out: % of control at 1 µM
T4 construct: purchased Ambit Biosciences (scanMAXX KINOMEscan)
T4 sequence (P10721 26-976 V559D/V654A): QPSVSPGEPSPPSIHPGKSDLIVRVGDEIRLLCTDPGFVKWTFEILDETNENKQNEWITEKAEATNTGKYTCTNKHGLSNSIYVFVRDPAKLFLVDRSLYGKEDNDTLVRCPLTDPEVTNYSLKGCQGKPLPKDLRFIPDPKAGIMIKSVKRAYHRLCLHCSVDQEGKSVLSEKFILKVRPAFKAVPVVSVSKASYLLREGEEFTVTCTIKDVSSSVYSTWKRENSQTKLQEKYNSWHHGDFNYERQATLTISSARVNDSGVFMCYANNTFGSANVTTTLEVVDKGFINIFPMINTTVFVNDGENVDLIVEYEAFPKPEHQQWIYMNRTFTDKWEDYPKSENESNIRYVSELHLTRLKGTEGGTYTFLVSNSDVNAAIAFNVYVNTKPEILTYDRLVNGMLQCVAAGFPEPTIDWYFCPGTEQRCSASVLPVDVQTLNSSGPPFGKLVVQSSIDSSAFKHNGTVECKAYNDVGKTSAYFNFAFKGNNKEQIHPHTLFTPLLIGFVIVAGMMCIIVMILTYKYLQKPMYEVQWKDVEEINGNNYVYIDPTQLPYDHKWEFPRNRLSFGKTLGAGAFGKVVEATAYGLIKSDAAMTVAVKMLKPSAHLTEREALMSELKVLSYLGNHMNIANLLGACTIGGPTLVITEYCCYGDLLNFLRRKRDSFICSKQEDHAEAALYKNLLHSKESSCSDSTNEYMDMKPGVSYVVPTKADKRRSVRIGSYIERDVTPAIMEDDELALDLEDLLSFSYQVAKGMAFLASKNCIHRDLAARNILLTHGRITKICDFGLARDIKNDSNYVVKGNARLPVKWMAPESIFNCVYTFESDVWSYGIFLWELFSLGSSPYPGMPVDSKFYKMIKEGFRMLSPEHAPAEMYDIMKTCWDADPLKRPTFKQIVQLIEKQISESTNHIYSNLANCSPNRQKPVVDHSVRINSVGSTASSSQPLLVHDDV

panel of 442 kinases [5] = molecular target: T5, panel of 442 kinases (Homo sapiens, UniProt Q9Y616); conditions: kinase IRAK3; for remaining activity at 1 µM: read-out: % of control at 1 µM
T5 construct: purchased Ambit Biosciences (scanMAXX KINOMEscan)
T5 sequence (Q9Y616 1-596): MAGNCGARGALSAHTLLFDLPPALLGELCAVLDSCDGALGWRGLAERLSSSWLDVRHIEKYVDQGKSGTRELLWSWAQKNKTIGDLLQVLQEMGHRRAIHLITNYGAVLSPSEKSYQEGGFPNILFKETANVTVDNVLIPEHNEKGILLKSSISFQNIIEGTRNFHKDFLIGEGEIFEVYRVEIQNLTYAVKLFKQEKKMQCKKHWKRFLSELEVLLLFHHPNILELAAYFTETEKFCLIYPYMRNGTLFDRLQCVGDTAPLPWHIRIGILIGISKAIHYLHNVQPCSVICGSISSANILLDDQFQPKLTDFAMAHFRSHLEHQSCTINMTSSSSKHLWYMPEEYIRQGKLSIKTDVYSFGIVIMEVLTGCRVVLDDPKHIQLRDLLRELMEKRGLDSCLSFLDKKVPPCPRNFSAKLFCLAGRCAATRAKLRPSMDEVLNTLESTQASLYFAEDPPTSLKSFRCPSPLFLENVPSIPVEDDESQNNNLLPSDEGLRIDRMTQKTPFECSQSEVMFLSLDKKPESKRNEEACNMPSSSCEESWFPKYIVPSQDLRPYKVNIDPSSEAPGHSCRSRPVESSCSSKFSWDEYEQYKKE

panel of 442 kinases [6] = molecular target: T6, panel of 442 kinases (Homo sapiens, UniProt Q8WU08); conditions: kinase YANK1; for remaining activity at 1 µM: read-out: YANK1 (% of control at 1 µM)
T6 construct: purchased Ambit Biosciences (scanMAXX KINOMEscan)
T6 sequence (Q8WU08 whole entry): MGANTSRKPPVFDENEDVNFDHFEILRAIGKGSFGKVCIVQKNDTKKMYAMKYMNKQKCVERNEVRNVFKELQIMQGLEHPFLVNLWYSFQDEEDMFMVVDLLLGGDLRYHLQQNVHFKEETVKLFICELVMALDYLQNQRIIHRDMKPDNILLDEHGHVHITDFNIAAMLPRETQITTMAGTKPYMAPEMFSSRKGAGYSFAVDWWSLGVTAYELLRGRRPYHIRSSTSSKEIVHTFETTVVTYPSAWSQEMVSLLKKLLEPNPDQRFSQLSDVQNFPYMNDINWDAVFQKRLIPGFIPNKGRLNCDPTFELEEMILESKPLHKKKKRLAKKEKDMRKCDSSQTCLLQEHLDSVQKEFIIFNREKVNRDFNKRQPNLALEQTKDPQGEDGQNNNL

panel of 442 kinases [7] = molecular target: T7, panel of 442 kinases (Homo sapiens, UniProt P50750); conditions: CDK9; for remaining activity at 1 µM: read-out: % of control at 1 µM
T7 construct: purchased Ambit Biosciences (scanMAXX KINOMEscan)
T7 sequence (P50750 whole entry): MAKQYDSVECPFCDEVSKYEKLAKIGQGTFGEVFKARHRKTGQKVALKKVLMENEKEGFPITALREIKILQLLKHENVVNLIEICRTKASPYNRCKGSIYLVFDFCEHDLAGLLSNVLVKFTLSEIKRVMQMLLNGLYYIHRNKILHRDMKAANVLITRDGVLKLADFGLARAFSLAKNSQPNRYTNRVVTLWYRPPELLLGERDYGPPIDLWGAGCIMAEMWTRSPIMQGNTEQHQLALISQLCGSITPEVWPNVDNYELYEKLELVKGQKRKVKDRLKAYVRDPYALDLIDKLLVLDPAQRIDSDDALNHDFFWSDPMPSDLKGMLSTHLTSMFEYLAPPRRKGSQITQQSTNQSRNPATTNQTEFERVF

panel of 442 kinases [8] = molecular target: T8, panel of 442 kinases (Homo sapiens, UniProt O75676)
T8 construct: purchased Ambit Biosciences (scanMAXX KINOMEscan)
T8 sequence (O75676 whole entry): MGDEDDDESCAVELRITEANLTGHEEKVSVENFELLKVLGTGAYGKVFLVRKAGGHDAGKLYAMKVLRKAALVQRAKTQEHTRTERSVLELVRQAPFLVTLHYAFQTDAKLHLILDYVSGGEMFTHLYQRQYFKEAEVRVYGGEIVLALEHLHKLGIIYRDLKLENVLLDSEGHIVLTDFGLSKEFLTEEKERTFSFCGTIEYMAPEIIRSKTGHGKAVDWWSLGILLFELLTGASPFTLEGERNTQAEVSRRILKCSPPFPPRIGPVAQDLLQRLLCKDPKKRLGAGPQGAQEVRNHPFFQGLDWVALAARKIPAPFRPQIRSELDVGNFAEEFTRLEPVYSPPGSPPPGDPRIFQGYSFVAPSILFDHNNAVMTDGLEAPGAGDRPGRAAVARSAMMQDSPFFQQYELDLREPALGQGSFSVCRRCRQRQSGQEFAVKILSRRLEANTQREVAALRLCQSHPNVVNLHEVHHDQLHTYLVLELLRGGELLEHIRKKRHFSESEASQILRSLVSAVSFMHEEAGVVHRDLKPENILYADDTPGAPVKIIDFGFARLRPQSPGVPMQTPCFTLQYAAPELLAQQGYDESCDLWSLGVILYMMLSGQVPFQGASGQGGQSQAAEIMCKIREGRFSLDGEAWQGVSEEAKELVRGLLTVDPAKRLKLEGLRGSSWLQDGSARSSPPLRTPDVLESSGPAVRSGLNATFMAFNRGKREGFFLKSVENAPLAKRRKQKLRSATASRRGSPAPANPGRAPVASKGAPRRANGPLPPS

panel of 442 kinases [9] = molecular target: T9, panel of 442 kinases (Homo sapiens, UniProt Q16832); conditions: DDR2; for remaining activity at 1 µM: read-out: % of control at 1 µM
T9 construct: purchased Ambit Biosciences (scanMAXX KINOMEscan)
T9 sequence (Q16832 22-855): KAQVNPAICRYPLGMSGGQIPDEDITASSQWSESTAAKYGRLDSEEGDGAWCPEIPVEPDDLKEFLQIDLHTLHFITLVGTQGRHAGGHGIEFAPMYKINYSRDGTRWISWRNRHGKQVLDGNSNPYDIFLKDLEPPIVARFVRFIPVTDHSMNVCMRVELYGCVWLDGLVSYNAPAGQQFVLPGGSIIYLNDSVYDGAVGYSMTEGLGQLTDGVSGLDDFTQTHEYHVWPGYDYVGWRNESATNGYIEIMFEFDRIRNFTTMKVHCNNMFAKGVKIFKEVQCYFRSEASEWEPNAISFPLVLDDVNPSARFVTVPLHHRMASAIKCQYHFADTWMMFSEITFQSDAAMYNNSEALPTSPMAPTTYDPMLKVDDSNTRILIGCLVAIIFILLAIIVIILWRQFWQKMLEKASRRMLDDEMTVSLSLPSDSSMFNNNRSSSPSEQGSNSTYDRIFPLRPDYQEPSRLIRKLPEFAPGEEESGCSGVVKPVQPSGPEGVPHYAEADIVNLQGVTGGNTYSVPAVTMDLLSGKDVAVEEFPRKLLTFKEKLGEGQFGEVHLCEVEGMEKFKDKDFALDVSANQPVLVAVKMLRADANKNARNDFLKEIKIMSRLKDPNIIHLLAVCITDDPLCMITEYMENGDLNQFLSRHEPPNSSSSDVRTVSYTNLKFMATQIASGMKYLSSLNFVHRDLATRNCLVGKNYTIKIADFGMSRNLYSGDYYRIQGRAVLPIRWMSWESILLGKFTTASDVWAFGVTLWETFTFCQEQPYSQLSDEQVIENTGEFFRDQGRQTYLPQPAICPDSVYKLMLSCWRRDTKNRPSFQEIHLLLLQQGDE

panel of 442 kinases [10] = molecular target: T10, panel of 442 kinases (Homo sapiens, UniProt Q9BX84); conditions: kinase TRPM6; for remaining activity at 1 µM: read-out: TRPM6 (% of control at 1 µM)
T10 construct: purchased Ambit Biosciences (scanMAXX KINOMEscan)

panel of 442 kinases [11] = molecular target: T11, panel of 442 kinases (Homo sapiens, UniProt P53355); conditions: DAPK1; for remaining activity at 1 µM: read-out: % of control at 1 µM
T11 construct: purchased Ambit Biosciences (scanMAXX KINOMEscan)
T11 sequence (P53355 whole entry): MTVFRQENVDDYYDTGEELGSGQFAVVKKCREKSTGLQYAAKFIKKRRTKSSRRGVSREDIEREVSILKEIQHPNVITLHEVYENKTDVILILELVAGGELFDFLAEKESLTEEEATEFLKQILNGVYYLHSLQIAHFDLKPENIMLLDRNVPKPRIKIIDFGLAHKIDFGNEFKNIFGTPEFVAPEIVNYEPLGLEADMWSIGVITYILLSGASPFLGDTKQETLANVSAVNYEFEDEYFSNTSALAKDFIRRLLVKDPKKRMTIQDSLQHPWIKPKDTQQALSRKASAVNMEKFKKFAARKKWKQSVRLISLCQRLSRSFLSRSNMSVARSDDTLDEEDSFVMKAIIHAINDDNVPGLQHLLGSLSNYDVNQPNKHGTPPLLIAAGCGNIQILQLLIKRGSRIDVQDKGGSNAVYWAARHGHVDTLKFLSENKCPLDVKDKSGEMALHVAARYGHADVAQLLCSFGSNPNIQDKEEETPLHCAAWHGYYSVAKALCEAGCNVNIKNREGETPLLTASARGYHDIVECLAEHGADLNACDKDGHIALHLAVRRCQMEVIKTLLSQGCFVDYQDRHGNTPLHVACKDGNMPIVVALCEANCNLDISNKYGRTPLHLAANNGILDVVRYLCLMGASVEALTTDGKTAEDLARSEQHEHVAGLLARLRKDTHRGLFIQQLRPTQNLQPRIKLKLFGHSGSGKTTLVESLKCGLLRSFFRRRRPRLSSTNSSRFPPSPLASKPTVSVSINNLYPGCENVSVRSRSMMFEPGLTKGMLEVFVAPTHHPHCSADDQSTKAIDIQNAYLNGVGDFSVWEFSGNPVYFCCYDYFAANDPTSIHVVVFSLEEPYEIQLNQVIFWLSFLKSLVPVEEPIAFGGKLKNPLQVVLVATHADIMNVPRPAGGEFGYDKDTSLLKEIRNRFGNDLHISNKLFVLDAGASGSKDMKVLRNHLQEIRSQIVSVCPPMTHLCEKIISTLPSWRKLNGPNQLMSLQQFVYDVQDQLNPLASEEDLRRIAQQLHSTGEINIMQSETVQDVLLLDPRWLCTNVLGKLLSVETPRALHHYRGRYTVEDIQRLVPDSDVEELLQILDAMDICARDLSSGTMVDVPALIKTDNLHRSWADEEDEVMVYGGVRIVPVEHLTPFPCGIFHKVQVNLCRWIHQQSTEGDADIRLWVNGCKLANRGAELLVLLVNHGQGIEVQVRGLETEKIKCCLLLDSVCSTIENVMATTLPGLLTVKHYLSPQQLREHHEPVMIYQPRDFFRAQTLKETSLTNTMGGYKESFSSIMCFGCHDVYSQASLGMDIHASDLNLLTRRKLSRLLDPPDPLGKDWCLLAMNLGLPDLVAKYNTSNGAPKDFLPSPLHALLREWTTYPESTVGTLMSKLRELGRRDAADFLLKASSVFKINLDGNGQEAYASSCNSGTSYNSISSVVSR

[12] = 10 µM, read-out: % of control at 10 µM
[13] = kinase RPS6KA4(Kin.Dom.1-N-terminal), read-out: RPS6KA4(Kin.Dom.1-N-terminal) (% of control at 1 µM)
[14] = kinase RPS6KA4(Kin.Dom.2-C-terminal), read-out: RPS6KA4(Kin.Dom.2-C-terminal) (% of control at 1 µM)

T1 sequence (Q9HC98 whole entry): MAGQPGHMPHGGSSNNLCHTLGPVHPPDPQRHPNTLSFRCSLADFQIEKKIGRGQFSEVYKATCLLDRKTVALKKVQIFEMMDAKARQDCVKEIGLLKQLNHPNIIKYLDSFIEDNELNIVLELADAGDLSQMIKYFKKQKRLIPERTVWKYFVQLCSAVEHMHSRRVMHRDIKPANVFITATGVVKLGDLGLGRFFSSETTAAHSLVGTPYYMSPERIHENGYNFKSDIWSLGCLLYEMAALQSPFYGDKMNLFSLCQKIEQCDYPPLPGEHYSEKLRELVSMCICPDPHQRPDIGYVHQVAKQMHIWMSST

Structure (SMILES)	remaining activity at 1 µM (panel of 442 kinases [1]) [%]	remaining activity at 1 µM (panel of 442 kinases [2]) [%]	remaining activity at 1 µM (panel of 442 kinases [3]) [%]	remaining activity at 1 µM (panel of 442 kinases [4]) [%]	remaining activity at 1 µM (panel of 442 kinases [5]) [%]	remaining activity at 1 µM (panel of 442 kinases [6]) [%]	remaining activity at 1 µM (panel of 442 kinases [7]) [%]	remaining activity at 1 µM (panel of 442 kinases [8]; [13]) [%]	remaining activity at 1 µM (panel of 442 kinases [8]; [14]) [%]	remaining activity at 1 µM (panel of 442 kinases [9]) [%]	remaining activity at 1 µM (panel of 442 kinases [10]) [%]	remaining activity at 1 µM (panel of 442 kinases [11]) [%]	also measured
Nc1cc(C(F)(F)F)c(-c2cc(N3CCOCC3)nc(N3CCOCC3)n2)cn1 [Buparlisib]	84	79	100	100	95	100	85	83	94	96	76	93	remaining activity at 10 µM (panel of 442 kinases [1]; [12]): 100%; remaining activity at 10 µM (panel of 442 kinases [2]; [12]): 82%; remaining activity at 10 µM (panel of 442 kinases [3]; 10 µM, read-out: YES (% of control at 10 µM)): 100%; remaining activity at 10 µM (panel of 442 kinases [4]; [12]): 98%; remaining activity at 10 µM (panel of 442 kinases [5]; [12]): 96%; remaining activity at 10 µM (panel of 442 kinases [6]; 10 µM, read-out: YANK1 (% of control at 10 µM)): 100%; remaining activity at 10 µM (panel of 442 kinases [7]; [12]): 85%; remaining activity at 10 µM (panel of 442 kinases [8]; kinase RPS6KA4(Kin.Dom.1-N-terminal), read-out: RPS6KA4(Kin.Dom.1-N-terminal) (% of control at 10 µM)): 100%; remaining activity at 10 µM (panel of 442 kinases [8]; kinase RPS6KA4(Kin.Dom.2-C-terminal), read-out: RPS6KA4(Kin.Dom.2-C-terminal) (% of control at 10 µM)): 100%; remaining activity at 10 µM (panel of 442 kinases [9]; [12]): 84%; remaining activity at 10 µM (panel of 442 kinases [10]; 10 µM, read-out: TRPM6 (% of control at 10 µM)): 75%; remaining activity at 10 µM (panel of 442 kinases [11]; [12]): 77%
Cn1c(=O)n(-c2ccc(C(C)(C)C#N)cc2)c2c3cc(-c4cnc5ccccc5c4)ccc3ncc21 [Dactolisib, 2-methyl-2-[4-(3-methyl-2-oxo-8-quinolin-3-yl-2,3-dihydroimidazo[4,5-c]quinolin-1-yl)-phenyl] propionitrile]	100	100	100	84	50	100	91	100	100	97	62	76	–
COc1ncc(-c2ccc3nccc(-c4ccnnc4)c3c2)cc1NS(=O)(=O)c1ccc(F)cc1F [Omipalisib]	100	100	100	100	26	100	100	100	97	100	100	93	–
FC(F)c1nc2ccccc2n1-c1nc(N2CCOCC2)nc(N2CCOCC2)n1 [ZSTK474, 2-(difluoromethyl)-1-[4,6-di(4-morpholinyl)-1,3,5-triazin-2-yl]-1H-benzimidazole]	100	92	100	95	100	100	100	100	100	100	74	86	–
